In assay [1] the test system is p-PKCα. The settings on record: for phospho PKCα level: D30 mDA neurons (FIG. 37).
Assay [2] concerns α-synuclein. Put plainly: α-synuclein protein level in day 30 iPSC-derived mDA (DaN) cultures after drug treatment (western blot, immunostaining). The format is cell-based, human. The conditions noted are these: for synuclein level: D30 mDA neurons (FIG. 37); for α-synuclein level: phorbol ester PKC agonists, PMA 10 μM, PRO 5 μM, day 27-30; for α-synuclein levels (western blot): EOSPD/PD cultures (190iPD); for α-synuclein levels (western blot) / amount of α-synuclein protein (western blot): treated 3 days from day 27, PEP005 1 μM, SMER-28 5 μM, Trehalose; for amount of α-synuclein protein (western blot): control line cultures (02iCTR). Here is the method:
(§1) iPSC maintenance, mDA neuron differentiation and drug treatments: iPSCs were maintained in E8 media on Matrigel and passaged every 5 days at split ratios from 1:6 to 1:12 as needed using Versene. Only iPSCs between passage 17 and passage 35 were used in this study. For differentiation, iPSCs were grown to ˜80% confluency. Cells were singularized with Accutase (Millipore/Sigma #SCR005) (5 minutes at 37° C.) and plated onto Matrigel-coated 6-well plates (BD Biosciences) at 200K cells per cm^2 (for a fully confluent monolayer) in E8 media with 5 μM Y27632 (StemGent). 24 hours after plating, media was changed to Stage 1 (50% DMEM/F12, 50% Neurobasal, N2, B27-Vitamin A, LDN-193189 (LDN), SB431542 (SB)). Stage 1 media was changed each day (3 mL per well) for 3 days. Media was next switched to Stage 2 (50% DMEM/F12, 50% Neurobasal, N2, B27-Vitamin A, LDN, SB, Purmorphamine (PMN), CHIR99021 (CHIR), Sonic hedgehog (SHH), Fibroblast Growth Factor 8 (FGF8)). Stage 2 media was changed each day (3 mL per well) for 4 days. Media was then switched to Stage 3 (50% DMEM/F12, 50% Neurobasal, N2, B27-Vitamin A, LDN, CHIR, all-trans-Retinoic acid (ATRA)). Stage 3 media was changed each day (3 mL per well) for 4 days. Finally, media was switched to Stage 4 (50% DMEM/F12, 50% Neurobasal, N2, B27+Vitamin A, Brain-Derived Neurotrophic Factor (BDNF), Glial Cell Line-Derived Neurotrophic Factor (GDNF), dibutyryl cyclic-AMP sodium salt (dbCAMP), L-Ascorbic Acid (AA), γ-Secretase inhibitor (DAPT), CHIR, Transforming Growth Factor beta-3 (TGF β3)). Stage 4 media was changed each day (3 mL per well) for 3 days. On day 15, cells were dissociated to single cells using Accutase (20 mins at 37° C.) and gently lifted. Dissociated cells were resuspended in Maturation Medium (50% DMEM/F12, 50% Neurobasal, N2, B27+Vitamin A, BDNF, GDNF, dbCAMP, AA, DAPT, TGF3) plus 5 μM Y27632 and reseeded onto Matrigel-coated 6-well plates at 200 k/cm^2 in 1 mL total volume or onto Matrigel-coated L-glass coverslips in a 24-well plate at 200 k/50 μL drop. Cells were allowed to attach for 45 mins at 37° C. and Maturation Medium was then added to final volumes of 3 mL per well for 6-well plates or 1.5 mL per well for 24-well plates with coverslips. A full medium change was performed 48-hours post-seeding and medium was changed every 3 days until day 30. For drug treatments, cells at day-27 were fed with Maturation Medium containing the indicated drug and cells were analyzed at day 30.
Immunocytochemistry and imaging: mDA neuron cultures were plated on L-glass coverslips and grown as above. Day 30 neurons were fixed in 4% PFA at room temperature for 10-15 mins. Fixed coverslips were washed in PBS and permeabilized for 10 minutes at room temperature in 1% Triton X-100 in PBS, followed by staining in primary antibody solution (5% normal donkey serum, 0.125% Triton-X, PBS) overnight at 4° C. with the following antibodies: TH (1:5000, Immunostar #22941) and α-synuclein (1:500, Abcam #ab138501). Samples were washed 3 times in PBS and stained with species-specific Alexa Fluor 488 or 594-conjugated secondary antibodies (1:500, Invitrogen) for 2 hours at room temperature, followed by DAPI counterstain. Confocal Z-stack images were acquired using a A1 microscope (Nikon) with 40× and 20× objectives and rendered using maximum intensity projection through IMARIS software (Bitplane).
Western blot: Cells were gently scraped off the plates, washed with PBS, centrifuged at 15000 RPM for 1 min, and dry pellets were frozen at −80° C. Samples were then thawed and lysed using 1×NETN buffer (20 mM Tris-HCl (pH 8.0), 100 mM NaCl, 0.5 mM EDTA and 0.5% NP-40) supplemented with phosphatase/protease inhibitor cocktail (MS-SAFE, Sigma-Aldrich). Lysates were sonicated in an automated cold bath sonicator for 20 mins using alternating 10 sec pulses followed by 10 sec rests. Samples were centrifuged for 20 min at 4° C. at 15000 RPM. Total soluble protein concentrations were measured using a Bradford assay (BIO-RAD). […]
A general note: A western blot detects proteins with antibodies after separation by electrophoresis.

Assay [3] deals with α-synuclein. The assay is described as above. The format is cell-based, human. The settings on record: control and EOSPD cultures, 24 hrs treatment.
Assay [4] has as its system P53. Nature of the assay: P53 level in mDA cultures under proteasome inhibitor, 24 hrs (western blot). The class given is cell-based, human. The settings on record: mDA/DaN cultures, 24 hrs treatment. Here is the method:
Protein degradation can be largely divided into protosomal and autophagy/lysosomal degradation pathways.
Western blot: Cells were gently scraped off the plates, washed with PBS, centrifuged at 15000 RPM for 1 min, and dry pellets were frozen at −80° C. Samples were then thawed and lysed using 1×NETN buffer (20 mM Tris-HCl (pH 8.0), 100 mM NaCl, 0.5 mM EDTA and 0.5% NP-40) supplemented with phosphatase/protease inhibitor cocktail (MS-SAFE, Sigma-Aldrich). Lysates were sonicated in an automated cold bath sonicator for 20 mins using alternating 10 sec pulses followed by 10 sec rests. Samples were centrifuged for 20 min at 4° C. at 15000 RPM. Total soluble protein concentrations were measured using a Bradford assay (BIO-RAD). […] Combined α-synuclein and p-PKCα expression plots were calculated by first normalizing bands to β-actin, then to the 02iCTR signal present in each blot. […] ROC plot and area under the curve was determined using R package ROCR to determine predicative probability percentages.
To test overall degradation rates, global […] function was inhibited in culture for 48 hours via cycloheximide treatment and protein was assessed and quantified over time. […] A significant reduction in the amount of LAMP1 was detected in all 3 EOSPD lines, which was consistent with the proteomics analysis. […]

Assay [5] deals with tyrosine hydroxylase (TH). The class given is cell-based, human. The settings on record: mDA cultures, phorbol ester PKC agonists; PMA 10 μM, PRO 5 μM, day 27-30. As to the method: as §1
Analytical flow cytometry: Day-30 cultures in 6-well plates were washed once in phosphate buffered saline (PBS) then 1 mL Accutase was added to each well and incubated for 25 mins at 37° C. or until the cells fully lifted. Cells were washed with an additional 2 mL Maturation Medium and very gently triturated until large clumps were no longer visible at which point cells were pelleted by centrifugation (1500 RPM for 3 mins). Cells were gently resuspended in 4% paraformaldehyde (PFA) in PBS and allowed to fix for 10-15 mins at room temperature. Fixed single cells were permeabilized using 1% Trition X-100 (Sigma-Aldrich) and stained using primary antibodies against TH (1:500 Immunostar, 22941), α-synuclein (1:1000 Abcam, ab138501), and MAP2ab (1:1000 Sigma-Aldrich, M1406), or isotype controls at same dilution (Cell Signaling IgG Isotype Control rabbit #3900S and mouse #5415S). Secondary antibodies (Alexa Fluor 488 and 594 donkey anti-mouse and donkey anti-rabbit, Invitrogen) were used at 1:500. Stained samples were quantified on an LSR Fortessa cytometer using BD FACSDiva software.
Immunocytochemistry and imaging: mDA neuron cultures were plated on L-glass coverslips and grown as above. Day 30 neurons were fixed in 4% PFA at room temperature for 10-15 mins. […]

“Also recorded” adds a separate entry of the source. Like-named read-outs stand apart in the source and are kept apart here. Where a SMILES comes first, the peptide text is derived from it. The star is where a group is joined. Cbz = O=C(OCc1ccccc1)*

In the case of `CCC/C=C/C=C/C(=O)O[C@H]1/C(=C/C(=O)OC)C[C@H]2C[C@H]([C@@H](C)O)OC(=O)C[C@H](O)C[C@@H]3C[C@H](OC(C)=O)C(C)(C)[C@](O)(C[C@@H]4C/C(=C/C(=O)OC)C[C@H](/C=C/C(C)(C)[C@]1(O)O2)O4)O3` [Bryostatin 1], the “phospho PKCα level” value in assay [1] is reported as “reduction”; in assay [1] (listed as Bryostratin) it was “did not seem to affect”. Moreover, the values for the synuclein level result in assay [2] and in assay [2] (listed as Bryostratin) were “unclear effects” and “did not seem to affect”, respectively.
Regarding `CC(C)C[C@@H](C=O)NC(=O)[C@H](CC(C)C)NC(=O)[C@H](CC(C)C)NC(=O)OCc1ccccc1` [MG132] (Cbz-Leu-Leu-Leu-aldehyde), in assay [3], the “α-synuclein levels under proteasome inhibition” value is reported as “no significant increase; also recorded: no substantial change”. Besides, the P53 level entry in assay [4] was “accumulation”.
As to `CCCCCCCCCCCCCC(=O)O[C@@H]1[C@@H](C)[C@@]2(O)[C@@H](C=C(CO)C[C@]3(O)C(=O)C(C)=C[C@@H]23)[C@@H]2C(C)(C)[C@]12OC(C)=O` [PMA, Phorbol 12-myristate 13-acetate], in assay [1] (mDA cultures, phorbol ester PKC agonists, PMA 10 μM, PRO 5 μM, day 27-30), the p-PKCα level entry is “reduction”. The TH level result in assay [5] is given as “increases”. For the same compound, in assay [2] (mDA cultures), the α-synuclein level result was “reduction”.
For the compound `CC(=O)O[C@@]12C[C@@H](C)[C@@]3(O)[C@@H](C=C(CO)C[C@]4(O)C(=O)C(C)=C[C@@H]34)[C@@H]1C2(C)C` [PRO, Prostratin], the TH level result in assay [5] is given as “increases”. Besides, the “α-synuclein expression, dose response” value in assay [2] (dose response study, mDA cultures) is on record as “decreased”. Moreover, the α-synuclein level entry in assay [2] (mDA cultures) is “reduction”.
Consider `C=CCNc1ncnc2ccc(Br)cc12` [SMER28], for which the “α-synuclein levels (western blot)” value in assay [2] is reported as “not”. Moreover, the “amount of α-synuclein protein (western blot)” value is recorded as “significantly reduced” in assay [2] and “reduction” in assay [2] (listed as SMER-28).
For `OC[C@H]1O[C@H](O[C@H]2O[C@H](CO)[C@@H](O)[C@H](O)[C@H]2O)[C@H](O)[C@@H](O)[C@@H]1O` [Trehalose], the “α-synuclein levels (western blot)” value in assay [2] is “reduced; also recorded: reduction”.

These data come from patent US12564568B2, “PKC pathway in Parkinson's Disease” (CEDARS-SINAI MEDICAL CENTER, priority 2018, dated 2026).
